Experimental data taken from US10561712B2, “Treatment of cancer and inhibition of metastasis using hemoglobin beta subunit” (UNIVERSITY OF MARYLAND, BALTIMORE, priority 2014, dated 2020).

Legend:
[1] = test system: normal kidney cell line 293A; test: Viability of normal cells, 293A; format: cell-based; conditions: data not shown
Text: (§1) The influence of HBB on the viability of the normal lung-residing cell lines HPEC (Human pulmonary endothelial cells) and HLMEC (Human lung microvascular endothelial cells) and on the normal kidney cell line 293T and 293A was examined as well.

[2] = test system: MCF-7 breast carcinoma cells; test: Viability of cancerous cell lines, MCF-7; conditions: MTS-based assay; FIG. 3E
Method: (§2) Neuroblastoma cells were seeded (3×10^4 per well) in a 96-well flat-bottomed tissue culture plate. After an incubation of 24 hr, cells were washed and incubated with the relevant factors (detailed in the following sections) diluted in starvation medium (RPMI-1640 containing 5% bovine serum albumin (BSA); Biological Industries, Kibbutz Beit Haemek, Israel; Sigma-Aldrich). Cell viability under normal conditions (starvation medium containing BSA) or after incubation with the relevant factors was monitored after 72 hr using an XTT (XTT cell proliferation kit; Biological Industries) or MTS-based (CellTiter 96® AQueous One Solution Cell Proliferation Assay; Promega) viability assays according to manufacturer instructions. Cells were also counted using the trypan-blue exclusion assay to verify the results obtained by XTT and MTS-based viability assays.
When incubated with the highest amount of HBB (100 μg), the viability of the following cell lines was inhibited: the breast cancer cell lines T47D and MCF-7, the prostate cancer cell line 22RVi, the cervical cancer cell line Hela, and the melanoma cell lines RALL and RKTJ.

[3] = test system: HLMEC (Human lung microvascular endothelial cells); test: Viability of normal cells, HLMEC; format: cell-based; conditions: normal lung-residing cell line, data not shown
Text: as §1

[4] = test system: MacroNB cells; test: Trypan blue exclusion assay, MacroNB cells; format: cell-based, human; conditions: incubation with HBB, results not shown
Method: as §2
The HBB-mediated inhibitory activity was dose dependent (results not shown).

[5] = test system: Cyclin D1 expression in MacroNB cells; test: Cyclin D1 expression (western blot), MacroNB cells; format: cell-based; conditions: incubated with human HBB, 48 hr; in reference to beta-tubulin; FIG. 4C
Method: Lysates of neuroblastoma cells and of mouse organs were resolved on SDS-PAGE after the addition of Laemmli sample buffer, and transferred onto nitrocellulose membrane. The total amount of protein in the lanes was assessed by Ponceau staining prior to blocking of the membrane. The membrane was blocked at room temperature with 3% BSA (Sigma-Aldrich) diluted in TBS-Tween (TBST) for 1 hr. For detection of the target proteins, membranes were incubated with relevant primary antibodies (see “Antibodies”), then washed 3 times×5 min with TBSTX1 and incubated with suitable HRP-conjugated secondary antibodies (see “Antibodies”). Membranes were washed again 5 times×3 min with TBSTX1. […]
Neuroblastoma cells (5×10^6) were plated and after 24 hr cells were incubated for 48 hr with human HBB diluted in starvation medium (RPMI 5% BSA) to a concentration of 10 μg/ml. […] Cyclin D1 expression was calculated in reference to β-tubulin expression in the lane as measured by densitometry using Scion Image software (Scion).
Whole cell lysates of MicroNB and MacroNB cells incubated with human HBB were subjected to western blot analysis and immunostaining. […] Cyclin D1 expression was calculated in reference to beta-tubulin. […] Significance was evaluated using Student's t-test for each analysis after incubation with HBB compared to incubation with control media.

Substance: HBB: beta subunit of human hemoglobin, 147 amino acids, SEQ ID NO:2, HPLC-purified from native human hemoglobin
- influence on the viability of normal cells [1]: did not influence the viability
- influence on viability of MCF-7 breast carcinoma cells (in words) [2]: inhibits the viability
- influence on the viability of normal cells [3]: did not influence the viability
- non-viable MacroNB cells following incubation [4]: 8%
- Cyclin-D1 expression in MacroNB cells [5]: significant decline
